Target: Saccharomyces cerevisiae α-glucosidase (Saccharomyces cerevisiae, UniProt P53341)
Test: Inhibition kinetic of α-glucosidase (Lineweaver–Burk and Michaelis–Menten fits)
Type: biochemical
Procedure: The data were fitted into both the Lineweaver–Burk and the Michaelis–Menten equation to determine the inhibition mode of the α-glucosidase for each of the COS mixtures.
The kinetic parameters, i.e., KM, Vmax, and the kinetic constants (Ki and Kii), were determined by fitting the data into the Michaelis–Menten equation [40] using the GraphPad Prism 8.0 software programs (GraphPad Inc., La Jolla, CA, USA) for Windows. The Michaelis–Menten equation, which expresses a relationship between the substrate concentration and the reaction velocity is given as follows:(3) V=Vmax [S]/ KM(1+[I]/Ki)+[S](1+[I]/Kii) where Ki represents the kinetic binding constants of the free enzymes, Kii represents the kinetic binding constant of the enzyme–substrate complex, V represents the velocity, Vmax represents the maximum velocity, KM represents the Michaelis’ constant, [S] represents the substrate concentration, and [I] represents the inhibitor concentration. The α values were calculated to determine the inhibition modes and the inhibitor binding preference.

Chain of Saccharomyces cerevisiae α-glucosidase (P53341 whole entry): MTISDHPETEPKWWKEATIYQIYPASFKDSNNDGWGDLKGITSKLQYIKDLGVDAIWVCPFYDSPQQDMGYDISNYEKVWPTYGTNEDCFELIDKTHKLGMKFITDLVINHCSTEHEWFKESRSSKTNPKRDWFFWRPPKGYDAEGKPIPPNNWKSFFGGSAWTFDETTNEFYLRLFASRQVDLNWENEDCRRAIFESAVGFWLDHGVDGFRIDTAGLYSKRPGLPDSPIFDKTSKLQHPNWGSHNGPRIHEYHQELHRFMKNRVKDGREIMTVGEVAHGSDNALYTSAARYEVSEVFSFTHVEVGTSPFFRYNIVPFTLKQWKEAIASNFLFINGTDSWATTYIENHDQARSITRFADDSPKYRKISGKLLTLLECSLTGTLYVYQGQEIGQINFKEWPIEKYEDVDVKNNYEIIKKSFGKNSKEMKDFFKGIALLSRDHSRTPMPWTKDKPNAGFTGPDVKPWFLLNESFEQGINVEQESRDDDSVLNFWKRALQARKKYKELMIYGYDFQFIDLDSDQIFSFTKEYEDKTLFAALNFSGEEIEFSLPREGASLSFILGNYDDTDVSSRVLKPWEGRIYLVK

## C[C@H]1O[C@H](O[C@H]2[C@H](O)[C@@H](O)[C@@H](O[C@H]3[C@H](O)[C@@H](O)C(O)O[C@@H]3CO)O[C@@H]2CO)[C@H](O)[C@@H](O)[C@@H]1N[C@H]1C=C(CO)[C@@H](O)[C@H](O)[C@H]1O (some centres unmarked) [Acarbose, acarbose]
  Type of Inhibition: Competitive
  α value from mixed-mode inhibition: 1.86

From PMC9740910, “Influence of Degree of Polymerization of Low-Molecular-Weight Chitosan Oligosaccharides on the α-Glucosidase Inhibition” (Molecules, 2022)
